Results taken from patent US11718612B2, “Inhibitors of receptor interacting protein kinase I for the treatment of disease” (Board of Regents, The University of Texas System, priority 2019, dated 2023).

Columns and labels:
U937 cells = test: Human U937 cellular necroptosis assay; format: cell-based; settings: U-937; U937 cells stimulated with 25 ng/mL human TNFalpha and 25 μM z-VAD-FMK; 22 hr; Cell Titer-Glo viability
Experimental: Human U937 Cellular Necroptosis Assay
The human monocytic cell line U937 (CRL-1593.2) may be purchased from ATCC. The cells are routinely maintained in RPMI-1640 Medium (Gibco, Catalog #11875-093) supplemented with 10% heat inactivated fetal bovine serum (Gibco, Catalog #16140-071), 100 units/mL penicillin and 100 μg/mL streptomycin (Gibco, Catalog #15140-122), in a humidified incubator (37° C., 5% CO2). For the assay, cells are resuspended in RPMI-1640 phenol red free Media (Gibco, Catalog #11835-030) supplemented with 10% fetal bovine serum (Sigma, Catalog #F2442), 100 units/mL penicillin and 100 ug/mL streptomycin. […] Stock solutions of the test compounds are prepared in 100% DMSO (Sigma, Catalog #D2650) and serially diluted 1:3 using 100% DMSO. Compounds are additionally diluted 1:40 in assay medium, and 10 μL/well was transferred to the plate. Following the compound addition, the plate is incubated at 37° C. and 5% CO2 for 22 hr. After 22 hr, viability is assessed with the addition of 20 μL of Cell Titer-Glo 2.0 (Promega, Catalog #G9243). The tissue culture plate is shaken on an orbital shaker at 300 RPM for 15 minutes at room temperature in the dark. Luminescence is measured using a PerkinElmer Envision™ plate reader. IC50 values are calculated using a four-parameter logistic curve fit using Genedata Screener software.

RIPK1 = RIPK1 (Homo sapiens (Human), UniProt Q13546); test: ADP-Glo kinase assay, RIPK1 activity; format: biochemical; settings: 5 nM RIPK1, 50 μM ATP, 6 hr reaction
Sequence of RIPK1 (Q13546 1-327): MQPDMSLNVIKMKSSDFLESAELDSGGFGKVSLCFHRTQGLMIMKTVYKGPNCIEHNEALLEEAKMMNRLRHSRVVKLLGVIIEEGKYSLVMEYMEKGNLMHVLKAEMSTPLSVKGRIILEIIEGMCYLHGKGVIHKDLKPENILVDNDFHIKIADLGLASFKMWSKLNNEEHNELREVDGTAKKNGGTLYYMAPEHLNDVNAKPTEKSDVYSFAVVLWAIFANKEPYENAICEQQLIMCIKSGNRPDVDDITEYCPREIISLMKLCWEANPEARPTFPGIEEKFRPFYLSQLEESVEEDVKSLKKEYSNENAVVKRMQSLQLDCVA
Experimental: In order to measure RIPK1 activity the ADP-Glo kinase assay (Promega, Catalog #V7002) was used to measure the conversion of ATP to ADP. This enzymatic assay was performed in a 384-well white, Optiplate (Perkin Elmer, Catalog #6007299) with assay buffer consisting of 50 mM HEPES pH 7.5 (Gibco, Catalog #15630-080), 50 mM NaCl (Teknova, Catalog #S0252), 30 mM MgCl2 (Ambion, Catalog #AM9530G), 1 mM DTT (Santa Cruz Biotechnology, Catalog #sc-29089), 0.05% BSA (Sigma, Catalog #A3059-50G) and 0.02% CHAPS (Sigma, Catalog #C5070-5G). Stock solutions of the test compounds were prepared in 100% DMSO (Sigma, Catalog #D2650) and serially diluted 1:3 using 100% DMSO. Compounds were additionally diluted 1:40 in assay buffer, and 2 μL/well were transferred to the assay plate. 4 μL/well (final concentration of 5 nM) of RIPK1 protein (SignalChem, Catalog #R07-11G-05) diluted in assay buffer and added to the assay plate followed by a 10 minute preincutation at room temperature. 4 μL/well of ATP (Promega, Catalog #V7002) (final concentration of 50 μM) diluted in assay buffer were then added to the assay plate followed by a 6 hr reaction time. Final concentrations of RIPK1 and ATP refer to a 10 μL volume. Luminescence was measured using a BioTek Synergy™ NEO plate reader. IC50 values were calculated using a four-parameter logistic curve fit using Genedata Screener software.

Structure (SMILES)	IC50 (RIPK1)	IC50 (U937 cells)
O=C1c2nn(Cc3cc(F)cc(F)c3)c(Cl)c2CCN1c1cccc(Cl)c1F [Example 3, 3-Chloro-6-(3-chloro-2-fluorophenyl)-2-(3,5-difluorobenzyl)-5,6-dihydro-2H-pyrazolo[3,4-c]pyridin-7(4H)-one]	0.111 µM	189 nM
O=C(Nc1cccc(Cl)c1F)c1ncn(Cc2ccccc2F)n1 [Example 12, N-(3-chloro-2-fluorophenyl)-1-(2-fluorobenzyl)-1H-1,2,4-triazole-3-carboxamide]	0.0186 µM	657 nM
Cc1nc(C(=O)Nc2cccc(Cl)c2F)nn1Cc1ccccc1 [Example 13, 1-benzyl-N-(3-chloro-2-fluorophenyl)-5-methyl-1H-1,2,4-triazole-3-carboxamide]	0.0419 µM	1270 nM
O=C(Nc1cccc(Cl)c1F)c1ncn(Cc2ccccc2)n1 [Example 27, 1-benzyl-N-(3-chloro-2-fluorophenyl)-1H-1,2,4-triazole-3-carboxamide]	0.0306 µM	851 nM
O=C(Nc1ccc(F)c(Cl)c1F)c1ncn(Cc2ccccc2)n1 [Example 28, 1-benzyl-N-(3-chloro-2,4-difluorophenyl)-1H-1,2,4-triazole-3-carboxamide]	0.0403 µM	1470 nM
N#Cc1cccc(Cn2cnc(C(=O)Nc3cccc(Cl)c3F)n2)c1 [Example 29, N-(3-chloro-2-fluorophenyl)-1-(3-cyanobenzyl)-1H-1,2,4-triazole-3-carboxamide]	0.0341 µM	356 nM
COc1ccc(NC(=O)c2ncn(Cc3ccccc3)n2)c(F)c1Cl [Example 30, 1-benzyl-N-(3-chloro-2-fluoro-4-methoxy-phenyl)-1H-1,2,4-triazole-3-carboxamide]	0.11 µM	1490 nM
O=C(Nc1ccc(O)c(Cl)c1F)c1ncn(Cc2ccccc2)n1 [Example 31, 1-benzyl-N-(3-chloro-2-fluoro-4-hydroxy-phenyl)-1H-1,2,4-triazole-3-carboxamide]	0.16 µM	1700 nM
N#Cc1ccc(Cn2cnc(C(=O)Nc3cccc(Cl)c3F)n2)cc1 [Example 33, N-(3-chloro-2-fluoro-phenyl)-1-(4-cyano-benzyl)-1H-1,2,4-triazole-3-carboxamide]	0.389 µM	5420 nM
N#Cc1cc(Cl)c(F)c(NC(=O)c2ncn(Cc3ccccc3)n2)c1 [Example 35, 1-benzyl-N-(3-chloro-5-cyano-2-fluorophenyl)-1H-1,2,4-triazole-3-carboxamide]	0.703 µM	7290 nM
O=C1c2cc(Cc3ccccc3)ccc2CN1c1ccccc1F [Example 48, 6-Benzyl-2-(2-fluorophenyl)isoindolin-1-one]	2.47 µM	
O=C1c2nc(Cc3ccccc3)ccc2CN1c1ccccc1F [Example 49, 2-Benzyl-6-(2-fluorophenyl)-5,6-dihydro-7H-pyrrolo[3,4-b]pyridin-7-one]	3.68 µM	
O=C1c2nn(Cc3cc(F)ccc3F)c(Cl)c2CCN1c1cccc(Cl)c1F [Example 50, 3-Chloro-6-(3-chloro-2-fluorophenyl)-2-(2,5-difluorobenzyl)-5,6-dihydro-2H-pyrazolo[3,4-c]pyridin-7(4H)-one]	0.0186 µM	42.5 nM
O=C(Nc1ccc(OC(F)(F)F)cc1F)c1ncn(Cc2ccccc2)n1 [Example 51, 1-benzyl-N-(2-fluoro-4-(trifluoromethoxy)-phenyl)-1H-1,2,4-triazole-3-carboxamide]	0.807 µM	8240 nM
Cc1cc(NC(=O)c2ncn(Cc3ccccc3)n2)ccc1OC(F)(F)F [Example 53, 1-benzyl-N-(3-methyl-4-(trifluoromethoxy)-phenyl)-1H-1,2,4-triazole-3-carboxamide]	4.91 µM	

Further lines, with some results ahead:

IC50 (RIPK1)	Structure (SMILES)	IC50 (U937 cells)
0.0174 µM	O=C1c2nn(Cc3ccccc3)c(Cl)c2CCN1c1cccc(Cl)c1F [Example 2, 2-Benzyl-3-chloro-6-(3-chloro-2-fluoro-phenyl)-4,5-dihydropyrazolo[3,4-c]pyridin-7-one]	71.2 nM
0.11 µM	Cc1nc(C(=O)Nc2cccc(Cl)c2F)nn1Cc1cnccn1 [Example 4, N-(3-Chloro-2-fluoro-phenyl)-5-methyl-1-(pyrazin-2-ylmethyl)-1,2,4-triazole-3-carboxamide]	1430 nM
0.245 µM	O=C(Nc1cccc(Cl)c1F)c1n[nH]c(Cc2ccccc2)n1 [Example 9, 5-benzyl-N-(3-chloro-2-fluoro-phenyl)-1H-1,2,4-triazole-3-carboxamide]	6300 nM
0.702 µM	Cn1nc(C(=O)Nc2cccc(Cl)c2F)nc1Cc1ccccc1 [Example 10, 5-Benzyl-N-(3-chloro-2-fluoro-phenyl)-1-methyl-1,2,4-triazole-3-carboxamide]	9220 nM
4.06 µM	Cn1cc(-c2cc(F)c(F)c(NC(=O)c3n[nH]c(Cc4ccccc4)n3)c2)cn1 [Example 11, 5-Benzyl-N-(2,3-difluoro-5-(1-methyl-1H-pyrazol-4-yl)-phenyl)-1H-1,2,4-triazole-3-carboxamide]	> 10000 nM
1.01 µM	O=C(Nc1cccc(Cl)c1F)c1nnc(Cc2ccccc2)o1 [Example 19, 5-Benzyl-N-(3-chloro-2-fluorophenyl)-1,3,4-oxadiazole-2-carboxamide]	> 10000 nM
0.521 µM	O=C(Nc1ccccc1F)c1n[nH]c(Cc2ccccc2)n1 [Example 20, 5-benzyl-N-(2-fluorophenyl)-1H-1,2,4-triazole-3-carboxamide]	6230 nM
0.854 µM	O=C(Nc1cccc(Cl)c1)c1n[nH]c(Cc2ccccc2)n1 [Example 21, 5-benzyl-N-(3-chlorophenyl)-1H-1,2,4-triazole-3-carboxamide]	> 10000 nM
1.57 µM	O=C(Nc1cccc(F)c1F)c1n[nH]c(Cc2ccccc2)n1 [Example 22, 5-benzyl-N-(2,3-difluorophenyl)-1H-1,2,4-triazole-3-carboxamide]	> 10000 nM
2.25 µM	O=C(Nc1cc(F)cc(F)c1F)c1n[nH]c(Cc2ccccc2)n1 [Example 23, 5-benzyl-N-(2,3,5-trifluorophenyl)-1H-1,2,4-triazole-3-carboxamide]	> 10000 nM
3.36 µM	O=C(Nc1cc(Cl)cc(Cl)c1)c1n[nH]c(Cc2ccccc2)n1 [Example 24, 5-benzyl-N-(3,5-dichlorophenyl)-1H-1,2,4-triazole-3-carboxamide]	> 10000 nM
4.35 µM	Cn1cc(-c2cc(Cl)c(F)c(NC(=O)c3n[nH]c(Cc4ccccc4)n3)c2)cn1 [Example 25, 5-benzyl-N-(3-chloro-2-fluoro-5-(1-methyl-1H-pyrazol-4-yl)phenyl)-1H-1,2,4-triazole-3-carboxamide]	10000 nM
0.257 µM	O=C(Nc1cccc(Cl)c1F)c1ncn(Cc2cnccn2)n1 [Example 32, N-(3-chloro-2-fluoro-phenyl)-1-(pyrazin-2-ylmethyl)-1H-1,2,4-triazole-3-carboxamide]	1920 nM
0.804 µM	Cn1cc(-c2cc(Cl)c(F)c(NC(=O)c3ncn(Cc4ccccc4)n3)c2)cn1 [Example 36, 1-benzyl-N-(3-chloro-2-fluoro-5-(1-methyl-1H-pyrazol-4-yl)phenyl)-1H-1,2,4-triazole-3-carboxamide]	10000 nM
48.6 µM	O=C(Nc1cccc(Cl)c1F)c1c[nH]c(Cc2ccccc2)n1 [Example 45, 2-benzyl-N-(3-chloro-2-fluorophenyl)-1H-imidazole-4-carboxamide]	
0.0484 µM	O=C(Nc1cccc(Cl)c1F)c1nc2n(n1)[C@H](c1ccccc1)C[C@@H]2F [Example 47, (5S,7S)—N-(3-chloro-2-fluorophenyl)-7-fluoro-5-phenyl-6,7-dihydro-5H-pyrrolo[1,2-b][1,2,4]triazole-2-carboxamide]	24.8 nM
0.0839 µM	O=C(Nc1cccc(Cl)c1F)c1ncn(Cc2cncc(F)c2)n1 [Example 103, N-(3-chloro-2-fluorophenyl)-1-((5-fluoropyridin-3-yl)methyl)-1H-1,2,4-triazole-3-carboxamide]	
